Measurements published in ChEMBL document CHEMBL3734713, “4-Thiazolidinone derivatives as potent antimicrobial agents: microwave-assisted synthesis, biological evaluation and docking studies” (2015).
In brackets after ≈: the same amount, converted by molar mass.

Assays:
[1] = system: Bacillus cereus; assay: Antibacterial activity against clinical isolates of Bacillus cereus assessed as growth inhibition after 24 hrs at 37 degC by iodonitrotetrazolium chloride staining based microdilution broth assay; type: functional
[2] = system: Micrococcus flavus; assay: Antibacterial activity against Micrococcus flavus ATCC 10240 assessed as growth inhibition after 24 hrs at 37 degC by iodonitrotetrazolium chloride staining based microdilution broth assay; type: functional; conditions: ATCC 10240, 24 h
[3] = system: Staphylococcus aureus; assay: Antibacterial activity against Staphylococcus aureus ATCC 6538 assessed as growth inhibition after 24 hrs at 37 degC by iodonitrotetrazolium chloride staining based microdilution broth assay; type: functional; conditions: ATCC 6538, 24 h
[4] = system: Listeria monocytogenes; assay: Antibacterial activity against Listeria monocytogenes NCTC 7973 assessed as growth inhibition after 24 hrs at 37 degC by iodonitrotetrazolium chloride staining based microdilution broth assay; type: functional; conditions: NCTC 7973, 24 h
[5] = system: Escherichia coli; assay: Antibacterial activity against Escherichia coli ATCC 35210 assessed as growth inhibition after 24 hrs at 37 degC by iodonitrotetrazolium chloride staining based microdilution broth assay; type: functional; conditions: ATCC 35210, 24 h
[6] = system: Enterobacter cloacae; assay: Antibacterial activity against human isolate of Enterobacter cloacae assessed as growth inhibition after 24 hrs at 37 degC by iodonitrotetrazolium chloride staining based microdilution broth assay; type: functional
[7] = system: Pseudomonas aeruginosa; assay: Antibacterial activity against Pseudomonas aeruginosa ATCC 27853 assessed as growth inhibition after 24 hrs at 37 degC by iodonitrotetrazolium chloride staining based microdilution broth assay; type: functional; conditions: ATCC 27853, 24 h
[8] = system: Salmonella typhimurium; assay: Antibacterial activity against Salmonella typhimurium ATCC 13311 assessed as growth inhibition after 24 hrs at 37 degC by iodonitrotetrazolium chloride staining based microdilution broth assay; type: functional, Salmonella enterica subsp. enterica serovar Typhimurium; conditions: Salmonella enterica, ATCC 13311, 24 h
[9] = system: Aspergillus fumigatus; assay: Antifungal activity against Aspergillus fumigatus ATCC 1022 assessed as growth inhibition after 72 hrs at 28 degC by serial dilution method; type: functional; conditions: for MIC: Aspergillus fumigatus, ATCC 1022, 72 h
[10] = system: Aspergillus versicolor; assay: Antifungal activity against Aspergillus versicolor ATCC 11730 assessed as growth inhibition after 72 hrs at 28 degC by serial dilution method; type: functional; conditions: for MIC: Aspergillus versicolor, ATCC 11730, 72 h
[11] = system: Aspergillus ochraceus; assay: Antifungal activity against Aspergillus ochraceus ATCC 12066 assessed as growth inhibition after 72 hrs at 28 degC by serial dilution method; type: functional; conditions: for MIC: Aspergillus ochraceus, ATCC 12066, 72 h
[12] = system: Aspergillus niger; assay: Antifungal activity against Aspergillus niger ATCC 6275 assessed as growth inhibition after 72 hrs at 28 degC by serial dilution method; type: functional; conditions: for MIC: Aspergillus niger, ATCC 6275, 72 h
[13] = system: Trichoderma viride; assay: Antifungal activity against Trichoderma viride IAM 5061 assessed as growth inhibition after 72 hrs at 28 degC by serial dilution method; type: functional; conditions: for MIC: Trichoderma viride, IAM 5061, 72 h
[14] = system: Talaromyces funiculosus; assay: Antifungal activity against Penicillium funiculosum ATCC 36839 assessed as growth inhibition after 72 hrs at 28 degC by serial dilution method; type: functional; conditions: for MIC: Talaromyces funiculosus, ATCC 36839, 72 h
[15] = system: Penicillium ochrochloron; assay: Antifungal activity against Penicillium ochrochloron ATCC 9112 assessed as growth inhibition after 72 hrs at 28 degC by serial dilution method; type: functional; conditions: for MIC: Penicillium ochrochloron, ATCC 9112, 72 h
[16] = system: Candida albicans; assay: Antifungal activity against Candida albicans ATCC 10231 assessed as growth inhibition after 72 hrs at 28 degC by serial dilution method; type: functional; conditions: for MIC: Candida albicans, ATCC 10231, 72 h
[17] = target: Human immunodeficiency virus type 1 reverse transcriptase (Human immunodeficiency virus 1) (UniProt Q72547); assay: Inhibition of HIV1 reverse transcriptase assessed as residual enzyme activity by measuring reduction in [3H]dTTP incorporation into poly(rA)-oligo(dT) at 4 uM incubated for 15 mins by scintillation counting method relative to control

Structure (SMILES) | MBC [1] | MIC [1] | MBC [2] | MIC [2] | MBC [3] | MIC [3] | MBC [4] | MIC [4] | MBC [5] | MIC [5] | MBC [6] | MIC [6] | MBC [7] | MIC [7] | MBC [8] | MIC [8] | MFC99.5 [9] | MIC [9] | MFC99.5 [10] | MIC [10] | other results
O=C1CSC(c2ccc(Cl)cc2)N1c1nc(C23CC4CC(CC(C4)C2)C3)cs1 (stereo unspecified) | 62.5 µM (≈ 26.9 µg/mL) | 16.2 µM (≈ 7 µg/mL) | 62.5 µM (≈ 26.9 µg/mL) | 30.6 µM (≈ 13.2 µg/mL) | 62.5 µM (≈ 26.9 µg/mL) | 16.2 µM (≈ 7 µg/mL) | 125 µM (≈ 53.9 µg/mL) | 62.5 µM (≈ 26.9 µg/mL) | 125 µM (≈ 53.9 µg/mL) | 62.5 µM (≈ 26.9 µg/mL) | 125 µM (≈ 53.9 µg/mL) | 62.5 µM (≈ 26.9 µg/mL) | 125 µM (≈ 53.9 µg/mL) | 16.2 µM (≈ 7 µg/mL) | 62.5 µM (≈ 26.9 µg/mL) | 16.2 µM (≈ 7 µg/mL) | 0.07 ×10⁻² umol/ml | 0.45 µM (≈ 0.194 µg/mL) | 0.07 ×10⁻² umol/ml | 0.5 µM (≈ 0.216 µg/mL) | MFC99.5 [11]: 0.07 ×10⁻² umol/ml; MIC [11]: 0.5 µM (≈ 0.216 µg/mL); MFC99.5 [12]: 0.07 ×10⁻² umol/ml; MIC [12]: 0.45 µM (≈ 0.194 µg/mL); MFC99.5 [13]: 0.05 ×10⁻² umol/ml; MIC [13]: 0.3 µM (≈ 0.129 µg/mL); MFC99.5 [14]: 0.07 ×10⁻² umol/ml; MIC [14]: 0.45 µM (≈ 0.194 µg/mL); MFC99.5 [15]: 0.07 ×10⁻² umol/ml; MIC [15]: 0.3 µM (≈ 0.129 µg/mL); MFC99.5 [16]: 1.16 ×10⁻² umol/ml; MIC [16]: 5.8 µM (≈ 2.5 µg/mL); Activity [17]: 99%
COc1ccc(OC)c(C2SCC(=O)N2c2nc(C34CC5CC(CC(C5)C3)C4)cs2)c1 (stereo unspecified) | 438 µM (≈ 200 µg/mL) | 219 µM (≈ 100 µg/mL) | 438 µM (≈ 200 µg/mL) | 219 µM (≈ 100 µg/mL) | 657 µM (≈ 300 µg/mL) | 438 µM (≈ 200 µg/mL) | 657 µM (≈ 300 µg/mL) | 438 µM (≈ 200 µg/mL) | 438 µM (≈ 200 µg/mL) | 219 µM (≈ 100 µg/mL) | 438 µM (≈ 200 µg/mL) | 219 µM (≈ 100 µg/mL) | 438 µM (≈ 200 µg/mL) | 438 µM (≈ 200 µg/mL) | 438 µM (≈ 200 µg/mL) | 219 µM (≈ 100 µg/mL) | 32.85 ×10⁻² umol/ml | 219 µM (≈ 100 µg/mL) | 32.85 ×10⁻² umol/ml | 219 µM (≈ 100 µg/mL) | MFC99.5 [11]: 32.85 ×10⁻² umol/ml; MIC [11]: 110 µM (≈ 50 µg/mL); MFC99.5 [12]: 87.6 ×10⁻² umol/ml; MIC [12]: 219 µM (≈ 100 µg/mL); MFC99.5 [13]: 21.9 ×10⁻² umol/ml; MIC [13]: 219 µM (≈ 100 µg/mL); MFC99.5 [14]: 43.8 ×10⁻² umol/ml; MIC [14]: 219 µM (≈ 100 µg/mL); MFC99.5 [15]: 43.8 ×10⁻² umol/ml; MIC [15]: 219 µM (≈ 100 µg/mL); MFC99.5 [16]: 109.5 ×10⁻² umol/ml; MIC [16]: 876 µM (≈ 400 µg/mL); Activity [17]: 80.7%
